Columns and labels:
HCT116 MTAP-/- cells = test: HCT116 MTAP-/- cell proliferation assay (CellTiter-Glo, 10 days); format: cell-based; settings: Homo sapiens, HCT-116, 240 h, growth inhibition, CTG assay Day 10
From the text: (§1) • I. Experimental materials and instruments • 1. HCT116 cell line (Nanjing Kebai Biotechnology Co., Ltd., CBP60028) • 2. HCT116 MTAP-/- cell line (Nanjing Kebai Biotechnology Co., Ltd., CBP75002) • 3. DMSO (Sigma, D2650) • 4. McCoy's 5A medium (Gibco, 16600-082) • 5. Foetal bovine serum (FBS) (Gibco, 10091148) • 6. Phosphate buffered saline (DPBS) pH 7.4 (Gibco, 14190-144) • 7. Pen strep (PS) (Gibco, 15140-122) • 8. 0.25% Typsin-EDTA (1×) (Gibco, 25200-072) • 9. CellTiter-Glo® Luminescent Cell Viability Assay (Promega, G7572) • 10. 96-well round-bottom plate (JET, TCP002096) • 11. 96-well black clear bottom plate (Hangzhou Xinyou Biotechnology Co., Ltd., 060096) • 12. 1.2 mL 96-well deep well plate, clear, sterile, square-well, V-bottom (Titan, 02089063) • 13. 15-mL centrifuge tube (Titan) • 14. Biosafety cabinet (Thermo, 1300AII) • 15. Cell counter (Countstar, IC1000) • 16. Incubator (Thermo, I160) • 17. Centrifuge (Beckman coulter, Allegra X-12 centrifuge) • 18. PHERAstar FS microplate reader (BMG Labtech) • II. Experimental procedure • 1. Cell plating (Day 0) • a) The cell morphology was observed under a microscope to ensure confluence reached approximately 90%. • b) The cell supernatant was aspirated, the cells were washed once with PBS, and then the PBS was removed; and the cells were digested by adding an appropriate amount of trypsin, and left to stand at 37°C for 3 minutes. • c) The digestion was terminated by adding an equal volume of McCoy's 5A medium containing 10% FBS, and the cell suspension was collected and centrifuged at 300 g for 3 minutes; and the cells were resuspended in an appropriate amount of fresh medium. • d) The resuspended cell suspension was taken for counting. • e) The cell suspension was diluted to 1e4/mL using McCoy's 5A medium containing 10% FBS, and seeded at 50 µL per well, corresponding to 500 cells/well for HCT116 and 500 cells/well for HCT116 MTAP-/-. • f) The cell plate was placed in a 37°C, 5% carbon dioxide incubator and incubated overnight. • 2. Compound treatment (Day 1) • a) Each compound was serially diluted in DMSO to generate a 9-point concentration gradient (starting concentration: 10000 µM, 3-fold dilution; the highest concentration may be adjusted individually based on IC50 of different compounds); for example, in a 96-well round-bottom compound-dilution plate, 5 µL of the compound was sequentially diluted into 10 µL of DMSO. • b) Each concentration point of every compound was then diluted 250-fold into the corresponding volume of McCoy's 5A medium. • c) To each cell plate, 50 µL of the diluted compound solution as described above was added sequentially to the cell supernatant (50 µL/well). • d) The compound-treated cell plate was placed in a 37°C, 5% carbon dioxide incubator and incubated. • 3. Re-digestion, re-plating and compound treatment (Day 5) • a) After 5 days of compound treatment, the compound-containing medium was aspirated, and the cells were rinsed once with PBS (100 µL/well); and the PBS was removed immediately. • b) The cells were digested by adding 25 µL of trypsin and incubated at 37°C for 3 minutes, and then the digestion was terminated by adding 175 µL/well of McCoy's 5A medium containing 10% FBS. • c) The cells were mixed thoroughly using a pipette, and re-plated at 1 : 20; and specifically, 10 µL of the cell suspension was aspirated to a new 96-well plate (pre-filled with 40 µL of McCoy's 5A medium containing 10% FBS. • d) Compounds were prepared and added according to steps a) to c) in Section 2, with 50 µL added per well. • e) The compound-treated cell plate was placed in a 37°C, 5% carbon dioxide incubator and incubated. • 4. […]

HCT116 cells = test: HCT116 cell proliferation assay (CellTiter-Glo, 10 days); format: cell-based; settings: Homo sapiens, HCT-116, 240 h, growth inhibition, CTG assay Day 10
From the text: as §1, with “3.” for “3. Re-digestion, re-plating and compound treatment (Day 5) • a) After 5 days of compound treatment, the compound-containing medium was aspirated, and the cells were rinsed once with PBS (100 µL/well); and the PBS was removed immediately. • b) The cells were digested by adding 25 µL of trypsin and incubated at 37°C for 3 minutes, and then the digestion was terminated by adding 175 µL/well of McCoy's 5A medium containing 10% FBS. • c) The cells were mixed thoroughly using a pipette, and re-plated at 1 : 20; and specifically, 10 µL of the cell suspension was aspirated to a new 96-well plate (pre-filled with 40 µL of McCoy's 5A medium containing 10% FBS. • d) Compounds were prepared and added according to steps a) to c) in Section 2, with 50 µL added per well. • e) The compound-treated cell plate was placed in a 37°C, 5% carbon dioxide incubator and incubated. • 4.”

[1] = Pharmacokinetic evaluation in Nu/Nu mice (plasma, LC-MS/MS); format: in vivo; settings: mouse, plasma, po, i.g., 100 mg/kg; for Vd/F: read-out: Apparent volume of distribution V/F; for AUC(0-t): read-out: Area under the curve AUC0-t; for CL/F: read-out: Clearance CL/F; for half-life: read-out: Half life T1/2 (converted); for Cmax: read-out: Plasma concentration Cmax
Experimental: Using Nu/Nu mice as the test animals, the plasma concentrations of the example compounds at different time points were determined by LC-MS/MS following oral gavage (i.g.) administration. The pharmacokinetic behaviours of the compounds of the present disclosure in Nu/Nu mice were investigated, and their pharmacokinetic profiles were evaluated.
Compound 1-p1, compound 2-p1, compound 8-p1 and comparative example 1.
A total of 36 female Nu/Nu mice (supplied by Vital River Laboratory Animal Technology Co., Ltd.) were randomly divided into 4 groups.
An appropriate amount of each test compound was weighed and dissolved in 5% DMSO+20% PEG400+70% (10% TPGS)+5% (1% HMPC K100LV) to prepare a 10 mg/mL colourless clear solution.
The administration dosage was 100 mg/kg, and the administration volume was 10 mL/kg.
Mice were not fasted. After oral gavage administration, blood (0.1 mL) was collected from the orbital cavity before administration, and at 0.25 h, 0.5 h, 1.0 h, 2.0 h, 4.0 h, 6.0 h, 8.0 h, 11.0 h and 24.0 h after administration. The blood was placed into EDTA-K2 anticoagulant tubes and centrifuged at 10000 rpm for 1 minute (4°C) to separate plasma. The plasma was separated within 1 h and stored at -20°C until analysis. The entire process from blood collection to centrifugation was performed in ice bath conditions.
Determination of test compound contents in plasma of Nu/Nu mice after administration of different compounds: To 20 µL of plasma samples from each time point in Nu/Nu mice, 200 µL of acetonitrile and 25 µL of verapamil (100 ng/mL) were added. The mixture was vortex-mixed for 5 minutes and centrifuged at 4000 rpm for 15 minutes. 90 µL of water and 90 µL of the supernatant were vortex-mixed for 5 minutes. 2 µL (for compound 1-p1), 2 µL (for compound 2-p1), 1 µL (for compound 8-p1), or 0.5 µL (for comparative example 1) of the supernatant was taken for LC-MS/MS analysis receptively.

[2H]C([2H])([2H])n1ncc(-c2ccc3c(=O)[nH]nc(CN)c3c2)c1-c1c(F)cc2c(c1C#N)N1CCC[C@H]1CO2 (single isomer, unassigned) [Compound 8-p1]
IC50 (HCT116 MTAP-/- cells): 16.1 nM | IC50 (HCT116 cells): 1450 nM | Vd/F [1]: 23.9 L/kg | AUC(0-t) [1]: 7640 ng·h/mL | CL/F [1]: 218 mL/min/kg | half-life [1]: 78 min | Cmax [1]: 2530 ng/mL

[2H]C([2H])([2H])n1ncc(-c2ccc3c(=O)[nH]nc(CN)c3c2)c1-c1c(F)cc2c(c1C#N)O[C@H]1CC[C@H]1O2 (single isomer, unassigned) [Compound 2-p1]
IC50 (HCT116 MTAP-/- cells): 10.2 nM | IC50 (HCT116 cells): 1300 nM | Vd/F [1]: 23.3 L/kg | AUC(0-t) [1]: 7140 ng·h/mL | CL/F [1]: 233 mL/min/kg | half-life [1]: 72 min | Cmax [1]: 2940 ng/mL

Cn1ncc(-c2ccc3c(=O)[nH]nc(CN)c3c2)c1-c1c(F)cc2c(c1C#N)O[C@H]1CC[C@H]1O2 (atropisomer, axis not shown; (M)) [Compound 1-p1, (M)-(2aS,8aR)-5-(4-(4-(aminomethyl)-1-oxo-1,2-dihydrophthalazin-6-yl)-1-methyl-1H-pyrazol-5-yl)-6-fluoro-1,2,2a,8a-tetrahydrobenzo[b]cyclobuta[e][1,4]dioxine-4-carbonitrile]
IC50 (HCT116 MTAP-/- cells): 11.9 nM | IC50 (HCT116 cells): 1450 nM | Vd/F [1]: 35.4 L/kg | AUC(0-t) [1]: 8650 ng·h/mL | CL/F [1]: 189 mL/min/kg | half-life [1]: 132 min | Cmax [1]: 3250 ng/mL

Source: patent publication EP4759817A1, “HETEROARYL COMPOUND, PREPARATION METHOD THEREFOR, AND USE THEREOF IN MEDICINE” (Jiangsu Hengrui Pharmaceuticals Co., Ltd., priority 2023, dated 2025)
